Data as given in ChEMBL document CHEMBL4219054, “Induction of apoptosis by pyrazolo[3,4-d]pyridazine derivative in lung cancer cells via disruption of Bcl-2/Bax expression balance” (Bioorg Med Chem, 2018).

Tests used:
[1] = test system: HCT-116; test: Antiproliferative activity against human HCT116 cells after 48 hrs by MTT assay; type: functional, cell-based
[2] = test system: A549; test: Induction of apoptosis in human A549 assessed as late apoptotic cells at 0.067 mM after 48 hrs by Annexin-V FITC/propidium iodide staining-based flow cytometric analysis (reference value: 0.21%); type: functional
[3] = test system: A549; test: Cell cycle arrest in human A549 cells assessed as accumulation at G2/M phase at 0.067 mM after 48 hrs by propidium iodide staining-based flow cytometric analysis (reference value: 5.34%); type: functional
[4] = test system: A549; test: Induction of apoptosis in human A549 assessed as early apoptotic cells at 0.067 mM after 48 hrs by Annexin-V FITC/propidium iodide staining-based flow cytometric analysis (reference value: 0.36%); type: functional
[5] = test system: A549; test: Induction of apoptosis in human A549 assessed as upregulation of caspase-3 mRNA expression level at 0.067 mM by RT-PCR analysis relative to control; type: functional
[6] = test system: A549; test: Cell cycle arrest in human A549 cells assessed as accumulation at S phase at 0.067 mM after 48 hrs by propidium iodide staining-based flow cytometric analysis (reference value: 27.04%); type: functional
[7] = test system: HepG2; test: Antiproliferative activity against human HepG2 cells after 48 hrs by MTT assay; type: functional, cell-based
[8] = test system: A549; test: Cell cycle arrest in human A549 cells assessed as accumulation at sub G1 phase at 0.067 mM after 48 hrs by propidium iodide staining-based flow cytometric analysis (reference value: 0.77%); type: functional
[9] = test system: A549; test: Cell cycle arrest in human A549 cells assessed as accumulation at G0/G1 phase at 0.067 mM after 48 hrs by propidium iodide staining-based flow cytometric analysis (reference value: 66.85%); type: functional
[10] = test system: A549; test: Induction of apoptosis in human A549 assessed as necrotic cells at 0.067 mM after 48 hrs by Annexin-V FITC/propidium iodide staining-based flow cytometric analysis (reference value: 0.2%); type: functional
[11] = test system: A549; test: Antiproliferative activity against human A549 cells after 48 hrs by MTT assay; type: functional, cell-based
[12] = test system: A549; test: Induction of apoptosis in human A549 assessed as upregulation of p53 mRNA expression level at 0.067 mM by RT-PCR analysis relative to control; type: functional
[13] = Antiproliferative activity against human HFB4 cells after 48 hrs by MTT assay; type: cell-based
[14] = test system: A549; test: Induction of apoptosis in human A549 assessed as upregulation of Bax mRNA expression level at 0.067 mM by RT-PCR analysis relative to control; type: functional
[15] = test system: A549; test: Induction of apoptosis in human A549 assessed as inhibition of Bcl2 mRNA expression level at 0.067 mM by RT-PCR analysis relative to control; type: functional
[16] = test system: A549; test: Induction of apoptosis in human A549 assessed as viable cells at 0.067 mM after 48 hrs by Annexin-V FITC/propidium iodide staining-based flow cytometric analysis (reference value: 97.42%); type: functional; details: A549, 48 h, read-out: Activity
[17] = test system: WI-38; test: Antiproliferative activity against human WI38 cells after 48 hrs by MTT assay; type: cell-based; details: WI-38, 48 h

- IC50 ([1]; HCT-116, 48 h): 130 µM
- IC50 ([7]; HepG2, 48 h): 115 µM
- IC50 ([11]; A549, 48 h): 67 µM
Structure (SMILES): O=c1oc2ccc3ccccc3c2cc1-c1n[nH]c(=O)c2nn(-c3ccccc3)cc12
- Activity [1]: Dose-dependent effect
- Activity [2]: 5.37%
- Activity [3]: 15.11%
- Activity [4]: 4.69%
- fold change (FC) [5]: 7.19
- Activity [6]: 16.59%
- Activity [7]: Dose-dependent effect
- Activity [8]: 11.42%
- Activity [9]: 56.88%
- Activity [10]: 1.36%
- Activity [11]: Dose-dependent effect
- fold change (FC) [12]: 5.08
- IC50 [13]: 281 µM
- fold change (FC) [14]: 7.28
- fold change (FC) [15]: 0.22
- viability at 67 µM [16]: 86.9%
- IC50 [17]: 219 µM
